Counter-ions that a name gives are not always drawn. Like-named read-outs stand apart in the source and are kept apart here.
How the values were obtained:
[1] = molecular target: T1, ROCK1 (Homo sapiens, UniProt Q13464); experiment: ROCK1 kinase binding affinity, DiscoverX KINOMEscan KdELECT; details: 11-point 3-fold dilution
T1 construct: T7 phage fusion (kinase-tagged phage) or DNA tag for qPCR detection
Protocol: (§1) 1. ROCK1 and ROCK2 kinase assays: The ROCK1 and ROCK2 kinase binding affinities of compounds in this disclosure were determined by DiscoverX's KINOMEscan™ KdELECT technology (https://www.discoverx.com/kinomescan-elect-kinase-screening-and-profiling-services): Kinase-tagged T7 phage strains were prepared in an E. coli host derived from the BL21 strain. E. coli were grown to log-phase and infected with T7 phage and incubated with shaking at 32° C. until lysis. The lysates were centrifuged and filtered to remove cell debris. The remaining kinases were produced in HEK-293 cells and subsequently tagged with DNA for qPCR detection. […] The liganded beads were blocked with excess biotin and washed with blocking buffer (SeaBlock (Pierce), 1% BSA, 0.05% Tween 20, 1 mM DTT) to remove unbound ligand and to reduce nonspecific binding. […] Kds were determined using an 11-point 3-fold compound dilution series with three DMSO control points. […] The compounds were then diluted directly into the assays such that the final concentration of DMSO was 0.9%. All reactions performed in polypropylene 384-well plate. Each was a final volume of 0.02 ml. […] The kinase concentration in the eluates was measured by qPCR.

[2] = molecular target: T2, ROCK2 (Homo sapiens, UniProt O75116); experiment: ROCK2 kinase binding affinity, DiscoverX KINOMEscan KdELECT; details: for ROCK2 Selectivity: selectivity for ROCK2 over ROCK1 from Kd
T2 construct: T7 phage fusion (kinase-tagged phage) or DNA tag for qPCR detection
Protocol: as §1

[3] = KINOMEscan KdELECT, 11-point 3-fold dilution, read-out: Kd (μM) ROCK2

T2 sequence (O75116 whole entry, the tested form may be a part): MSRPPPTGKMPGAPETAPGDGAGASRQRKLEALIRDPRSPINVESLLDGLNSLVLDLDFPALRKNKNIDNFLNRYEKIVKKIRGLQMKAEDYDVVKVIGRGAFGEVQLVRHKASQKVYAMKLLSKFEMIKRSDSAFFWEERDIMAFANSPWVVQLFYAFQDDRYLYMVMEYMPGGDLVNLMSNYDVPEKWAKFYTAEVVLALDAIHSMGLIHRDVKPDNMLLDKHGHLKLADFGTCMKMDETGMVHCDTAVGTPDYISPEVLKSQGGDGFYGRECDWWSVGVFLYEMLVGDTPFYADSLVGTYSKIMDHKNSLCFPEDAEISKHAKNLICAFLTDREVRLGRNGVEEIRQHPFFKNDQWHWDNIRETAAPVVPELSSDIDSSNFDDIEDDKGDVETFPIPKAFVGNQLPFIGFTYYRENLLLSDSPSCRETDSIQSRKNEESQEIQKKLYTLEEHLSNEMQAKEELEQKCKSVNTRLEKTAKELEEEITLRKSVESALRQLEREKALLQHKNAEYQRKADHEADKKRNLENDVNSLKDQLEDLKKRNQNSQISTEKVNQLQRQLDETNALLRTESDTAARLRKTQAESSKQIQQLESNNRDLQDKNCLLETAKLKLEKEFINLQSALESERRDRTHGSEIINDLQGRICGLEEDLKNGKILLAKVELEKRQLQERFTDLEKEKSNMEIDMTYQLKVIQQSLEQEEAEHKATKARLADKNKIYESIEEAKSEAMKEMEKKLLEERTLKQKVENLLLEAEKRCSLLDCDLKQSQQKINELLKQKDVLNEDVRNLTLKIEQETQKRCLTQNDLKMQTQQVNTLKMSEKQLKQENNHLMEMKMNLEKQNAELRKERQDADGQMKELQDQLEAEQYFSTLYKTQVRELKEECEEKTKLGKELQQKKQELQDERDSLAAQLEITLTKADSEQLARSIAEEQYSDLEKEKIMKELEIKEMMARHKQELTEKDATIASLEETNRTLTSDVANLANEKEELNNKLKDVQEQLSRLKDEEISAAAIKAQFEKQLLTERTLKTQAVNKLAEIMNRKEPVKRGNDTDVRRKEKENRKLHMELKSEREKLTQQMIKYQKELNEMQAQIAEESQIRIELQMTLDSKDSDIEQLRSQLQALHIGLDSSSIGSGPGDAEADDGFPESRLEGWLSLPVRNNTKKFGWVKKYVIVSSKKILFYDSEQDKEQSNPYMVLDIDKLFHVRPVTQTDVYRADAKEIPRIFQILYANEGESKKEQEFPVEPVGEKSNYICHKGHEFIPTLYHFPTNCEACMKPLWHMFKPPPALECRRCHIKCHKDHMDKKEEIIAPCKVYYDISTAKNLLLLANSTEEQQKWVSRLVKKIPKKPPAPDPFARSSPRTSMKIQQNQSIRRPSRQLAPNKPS
T1 sequence (Q13464 whole entry, the tested form may be a part): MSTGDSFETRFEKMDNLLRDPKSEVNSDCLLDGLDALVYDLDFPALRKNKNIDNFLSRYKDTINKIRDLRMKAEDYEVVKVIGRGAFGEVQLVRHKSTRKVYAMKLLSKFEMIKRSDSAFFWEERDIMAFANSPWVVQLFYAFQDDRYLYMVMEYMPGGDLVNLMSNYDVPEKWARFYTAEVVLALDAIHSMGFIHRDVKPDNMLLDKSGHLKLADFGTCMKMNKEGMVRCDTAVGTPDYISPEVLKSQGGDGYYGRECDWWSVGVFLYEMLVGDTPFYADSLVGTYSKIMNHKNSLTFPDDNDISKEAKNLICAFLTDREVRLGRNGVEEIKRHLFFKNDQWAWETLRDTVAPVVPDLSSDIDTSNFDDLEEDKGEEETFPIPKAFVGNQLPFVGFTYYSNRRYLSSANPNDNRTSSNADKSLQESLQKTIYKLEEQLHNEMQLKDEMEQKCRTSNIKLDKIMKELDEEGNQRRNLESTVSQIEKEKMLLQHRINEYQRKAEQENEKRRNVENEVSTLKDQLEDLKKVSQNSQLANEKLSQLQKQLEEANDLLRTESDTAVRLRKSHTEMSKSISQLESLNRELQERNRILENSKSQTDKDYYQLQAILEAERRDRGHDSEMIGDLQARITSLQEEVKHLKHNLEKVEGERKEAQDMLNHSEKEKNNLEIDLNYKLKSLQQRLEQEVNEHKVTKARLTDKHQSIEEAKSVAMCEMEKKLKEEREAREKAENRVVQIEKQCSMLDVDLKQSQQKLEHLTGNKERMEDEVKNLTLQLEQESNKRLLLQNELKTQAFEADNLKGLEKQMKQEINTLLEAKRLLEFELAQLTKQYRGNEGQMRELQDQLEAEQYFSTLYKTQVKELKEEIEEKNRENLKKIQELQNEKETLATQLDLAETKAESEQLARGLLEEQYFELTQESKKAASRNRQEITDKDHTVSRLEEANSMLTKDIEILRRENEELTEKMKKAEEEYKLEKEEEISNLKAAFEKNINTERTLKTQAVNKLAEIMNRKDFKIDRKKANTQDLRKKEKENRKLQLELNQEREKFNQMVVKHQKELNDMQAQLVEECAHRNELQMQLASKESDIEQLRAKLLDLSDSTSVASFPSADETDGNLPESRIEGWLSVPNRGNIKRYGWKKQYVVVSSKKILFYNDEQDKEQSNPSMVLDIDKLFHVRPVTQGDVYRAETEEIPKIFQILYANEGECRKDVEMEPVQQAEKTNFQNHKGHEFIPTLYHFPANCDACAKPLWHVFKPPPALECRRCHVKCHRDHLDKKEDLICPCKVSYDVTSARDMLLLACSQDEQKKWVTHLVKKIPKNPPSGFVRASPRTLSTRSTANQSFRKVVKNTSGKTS

Row | SMILES | Kd [1] | Kd [2, 3] | ROCK2 Selectivity [2] | Kd [2]
1 | CS(=O)(=O)CCNc1nccc(-c2nccc(C#Cc3ccc4[nH]ncc4c3)n2)n1 [Ex. 56, 4-((1H-Indazol-5-yl)ethynyl)-N-(2-(methylsulfonyl)ethyl)-[2,4′-bipyrimidin]-2′-amine] | 1 to 9.9 µM | < 0.01 µM | **** (>500-fold selectivity for ROCK2) | –
2 | O=S1(=O)CC[C@H](Nc2nccc(-c3nccc(C#Cc4ccc5[nH]ncc5c4)n3)n2)C1 [Ex. 83, (S)-3-((4-((1H-Indazol-5-yl)ethynyl)-[2,4′-bipyrimidin]-2′-yl)amino)tetrahydrothiophene 1,1-dioxide] | 0.1 to 0.99 µM | < 0.01 µM | *** (151 to 500-fold selectivity for ROCK2) | –
3 | C(#Cc1ccnc(-c2ccnc(N[C@@H]3CCOC3)n2)n1)c1ccc2[nH]ncc2c1 [Ex. 59, (R)-4-((1H-Indazol-5-yl)ethynyl)-N-(tetrahydrofuran-3-yl)-[2,4′-bipyrimidin]-2′-amine] | 1 to 9.9 µM | < 0.01 µM | *** (151 to 500-fold selectivity for ROCK2) | –
4 | CC(Nc1nccc(-c2nccc(C#Cc3ccc4[nH]ncc4c3)n2)n1)C1CCCO1 (stereo not drawn) [Ex. 67, 4-((1H-Indazol-5-yl)ethynyl)-N-(1-(tetrahydrofuran-2-yl)ethyl)-[2,4′-bipyrimidin]-2′-amine] | 1 to 9.9 µM | 0.01 to 0.099 µM | * (<50-fold selectivity for ROCK2) | –
5 | C(#Cc1ccnc(-c2ccnc(NCC3CCCCN3)n2)n1)c1ccc2[nH]ncc2c1 (stereo not drawn) [Ex. 9, 4-((1H-Indazol-5-yl)ethynyl)-N-(piperidin-2-ylmethyl)-[2,4′-bipyrimidin]-2′-amine] | 1 to 9.9 µM | 0.1 to 0.99 µM | * (<50-fold selectivity for ROCK2) | –
6 | C(#Cc1ccnc(-c2ccnc(NCc3ccccn3)n2)n1)c1ccc2[nH]ncc2c1 [Ex. 22, 4-((1H-Indazol-5-yl)ethynyl)-N-(pyridin-2-ylmethyl)-[2,4′-bipyrimidin]-2′-amine] | 1 to 9.9 µM | 0.01 to 0.099 µM | ** (50 to 150-fold selectivity for ROCK2) | –
7 | C(#Cc1ccnc(-c2ccnc(N[C@H]3CCOC3)n2)n1)c1ccc2[nH]ncc2c1 [Ex. 62, (S)-4-((1H-Indazol-5-yl)ethynyl)-N-(tetrahydrofuran-3-yl)-[2,4′-bipyrimidin]-2′-amine] | 1 to 9.9 µM | < 0.01 µM | *** (151 to 500-fold selectivity for ROCK2) | –
8 | O[C@H]1CC[C@@H](Nc2nccc(-c3nccc(C#Cc4ccc5cncn5c4)n3)n2)CC1 [Ex. 96, (1s,4s)-4-((4-(Imidazo[1,5-a]pyridin-6-ylethynyl)-[2,4′-bipyrimidin]-2′-yl)amino)cyclohexanol] | 10 to 100 µM | 0.01 to 0.099 µM | ** (50 to 150-fold selectivity for ROCK2) | –
9 | Fc1cccc(CNc2nccc(-c3nccc(C#Cc4ccc5[nH]ncc5c4)n3)n2)c1F [Ex. 26, 4-((1H-Indazol-5-yl)ethynyl)-N-(2,3-difluorobenzyl)-[2,4′-bipyrimidin]-2′-amine] | 1 to 9.9 µM | 0.01 to 0.099 µM | ** (50 to 150-fold selectivity for ROCK2) | –
10 | CN1CCN(C(=O)CNc2nccc(-c3nccc(C#Cc4ccc5[nH]ncc5c4)n3)n2)CC1 [Ex. 73, 2-((4-((1H-Indazol-5-yl)ethynyl)-[2,4′-bipyrimidin]-2′-yl)amino)-1-(4-methylpiperazin-1-yl)ethanone] | 0.1 to 0.99 µM | 0.01 to 0.099 µM | * (<50-fold selectivity for ROCK2) | –
11 | Fc1ccccc1CNc1nccc(-c2nccc(C#Cc3ccc4[nH]ncc4c3)n2)n1 [Ex. 15, 4-((1H-Indazol-5-yl)ethynyl)-N-(2-fluorobenzyl)-[2,4′-bipyrimidin]-2′-amine] | 10 to 100 µM | 0.01 to 0.099 µM | *** (151 to 500-fold selectivity for ROCK2) | –
12 | O=C(O)[C@H]1CC[C@H](Nc2nccc(-c3nccc(C#Cc4ccc5[nH]ncc5c4)n3)n2)CC1 [Ex. 87, (1r,4r)-4-((4-((1H-Indazol-5-yl)ethynyl)-[2,4′-bipyrimidin]-2′-yl)amino)cyclohexanecarboxylic acid] | 1 to 9.9 µM | 0.1 to 0.99 µM | * (<50-fold selectivity for ROCK2) | –
13 | C(#Cc1ccnc(-c2ccnc(NCc3ncccn3)n2)n1)c1ccc2[nH]ncc2c1 [Ex. 7, 4-((1H-indazol-5-yl)ethynyl)-N-(pyrimidin-2-ylmethyl)-[2,4′-bipyrimidin]-2′-amine] | 0.1 to 0.99 µM | 0.01 to 0.099 µM | * (<50-fold selectivity for ROCK2) | –
14 | O=C(CNc1nccc(-c2nccc(C#Cc3ccc4[nH]ncc4c3)n2)n1)NC12CCC(CC1)C2 [Ex. 2, 2-((4-((1H-Indazol-5-yl)ethynyl)-[2,4′-bipyrimidin]-2′-yl)amino)-N-(bicyclo[2.2.1]heptan-1-yl)acetamide] | 0.1 to 0.99 µM | < 0.01 µM | *** (151 to 500-fold selectivity for ROCK2) | –
15 | Fc1ccc(CNc2nccc(-c3nccc(C#Cc4ccc5[nH]nc(F)c5c4)n3)n2)nc1 [Ex. 45, 4-((3-Fluoro-1H-indazol-5-yl)ethynyl)-N-((5-fluoropyridin-2-yl)methyl)-[2,4′-bipyrimidin]-2′-amine] | 10 to 100 µM | 0.01 to 0.099 µM | **** (>500-fold selectivity for ROCK2) | –
16 | C(#Cc1ccnc(-c2ccnc(NCC3CCCC3)n2)n1)c1ccc2[nH]ncc2c1 [Ex. 44, 4-((1H-Indazol-5-yl)ethynyl)-N-(cyclopentylmethyl)-[2,4′-bipyrimidin]-2′-amine] | 10 to 100 µM | 0.01 to 0.099 µM | *** (151 to 500-fold selectivity for ROCK2) | –
17 | C(#Cc1ccnc(-c2ccnc(NCc3ccc4c(c3)CNC4)n2)n1)c1ccc2[nH]ncc2c1 [Ex. 20, 4-((1H-Indazol-5-yl)ethynyl)-N-(isoindolin-5-ylmethyl)-[2,4′-bipyrimidin]-2′-amine trifluoroacetate salt] | 0.1 to 0.99 µM | 0.01 to 0.099 µM | * (<50-fold selectivity for ROCK2) | –
18 | Cc1ccnc(F)c1CNc1nccc(-c2nccc(C#Cc3ccc4[nH]ncc4c3)n2)n1 [Ex. 70, 4-((1H-Indazol-5-yl)ethynyl)-N-((2-fluoro-4-methylpyridin-3-yl)methyl)-[2,4′-bipyrimidin]-2′-amine] | 10 to 100 µM | 0.01 to 0.099 µM | **** (>500-fold selectivity for ROCK2) | –
19 | CC1(CNc2nccc(-c3nccc(C#Cc4ccc5[nH]ncc5c4)n3)n2)CCCO1 (stereo not drawn) [Ex. 53, 4-((1H-Indazol-5-yl)ethynyl)-N-((2-methyltetrahydrofuran-2-yl)methyl)-[2,4′-bipyrimidin]-2′-amine] | 1 to 9.9 µM | 0.01 to 0.099 µM | ** (50 to 150-fold selectivity for ROCK2) | –
20 | Cc1cnc(CNc2nccc(-c3nccc(C#Cc4ccc5[nH]ncc5c4)n3)n2)nc1 [Ex. 4, 4-((1H-Indazol-5-yl)ethynyl)-N-((5-methylpyrimidin-2-yl)methyl)-[2,4′-bipyrimidin]-2′-amine] | 1 to 9.9 µM | 0.1 to 0.99 µM | * (<50-fold selectivity for ROCK2) | –
21 | COC(C)(C)CNc1nccc(-c2nccc(C#Cc3ccc4[nH]ncc4c3)n2)n1 [Ex. 81, 4-((1H-Indazol-5-yl)ethynyl)-N-(2-methoxy-2-methylpropyl)-[2,4′-bipyrimidin]-2′-amine] | 1 to 9.9 µM | 0.01 to 0.099 µM | ** (50 to 150-fold selectivity for ROCK2) | –
22 | O[C@H]1CC[C@@H](Nc2nccc(-c3nccc(C#Cc4ccc5[nH]cnc5c4)n3)n2)CC1 [Ex. 95, (1s,4s)-4-((4-((1H-Benzo[d]imidazol-5-yl)ethynyl)-[2,4′-bipyrimidin]-2′-yl)amino)cyclohexanol] | 10 to 100 µM | – | *** (151 to 500-fold selectivity for ROCK2) | 0.01 to 0.099 µM
23 | CC1(C)CCC(CNc2nccc(-c3nccc(C#Cc4ccc5[nH]ncc5c4)n3)n2)O1 (stereo not drawn) [Ex. 68, 4-((1H-Indazol-5-yl)ethynyl)-N-((5,5-dimethyltetrahydrofuran-2-yl)methyl)-[2,4′-bipyrimidin]-2′-amine] | 0.1 to 0.99 µM | < 0.01 µM | *** (151 to 500-fold selectivity for ROCK2) | –
24 | COc1ccccc1CNc1nccc(-c2nccc(C#Cc3ccc4[nH]ncc4c3)n2)n1 [Ex. 18, 4-((1H-Indazol-5-yl)ethynyl)-N-(2-methoxybenzyl)-[2,4′-bipyrimidin]-2′-amine] | 1 to 9.9 µM | 0.01 to 0.099 µM | ** (50 to 150-fold selectivity for ROCK2) | –
25 | COC(=O)[C@H]1CC[C@@H](Nc2nccc(-c3nccc(C#Cc4ccc5[nH]ncc5c4)n3)n2)CC1 [Ex. 91, (1s,4s)-Methyl 4-((4-((1H-indazol-5-yl)ethynyl)-[2,4′-bipyrimidin]-2′-yl)amino)cyclohexanecarboxylate] | 0.1 to 0.99 µM | < 0.01 µM | ** (50 to 150-fold selectivity for ROCK2) | –
26 | O[C@@H]1CC[C@@H](Nc2nccc(-c3nccc(C#Cc4ccc5[nH]ncc5c4)n3)n2)C1 [Ex. 78, (1R,3R)-3-((4-((1H-Indazol-5-yl)ethynyl)-[2,4′-bipyrimidin]-2′-yl)amino)cyclopentanol] | 1 to 9.9 µM | < 0.01 µM | *** (151 to 500-fold selectivity for ROCK2) | –

— patent US20230295131A1, “INHIBITORS OF RHO-ASSOCIATED COILED-COIL KINASE” (Angion Biomedica Corp., priority 2020, published 2023)
